Laboratory results as given in ChEMBL document CHEMBL3632561, “Probing the structural requirements of non-electrophilic naphthalene-based Nrf2 activators” (Eur J Med Chem, 2015).
Active and inactive are the calls of the source. The calls are words filed in the database; no cut-off is given here.

How the values were obtained:
Type in all cases: cell-based
[1] = target: T1, Nuclear factor erythroid 2-related factor 2 (Mus musculus) (UniProt Q60795); assay: Activation of NRF2 in mouse MLE12 cells assessed as induction of HMOX1 expression at 10 uM incubated for 6 hrs by immunoblot assay
T1 sequence (whole entry): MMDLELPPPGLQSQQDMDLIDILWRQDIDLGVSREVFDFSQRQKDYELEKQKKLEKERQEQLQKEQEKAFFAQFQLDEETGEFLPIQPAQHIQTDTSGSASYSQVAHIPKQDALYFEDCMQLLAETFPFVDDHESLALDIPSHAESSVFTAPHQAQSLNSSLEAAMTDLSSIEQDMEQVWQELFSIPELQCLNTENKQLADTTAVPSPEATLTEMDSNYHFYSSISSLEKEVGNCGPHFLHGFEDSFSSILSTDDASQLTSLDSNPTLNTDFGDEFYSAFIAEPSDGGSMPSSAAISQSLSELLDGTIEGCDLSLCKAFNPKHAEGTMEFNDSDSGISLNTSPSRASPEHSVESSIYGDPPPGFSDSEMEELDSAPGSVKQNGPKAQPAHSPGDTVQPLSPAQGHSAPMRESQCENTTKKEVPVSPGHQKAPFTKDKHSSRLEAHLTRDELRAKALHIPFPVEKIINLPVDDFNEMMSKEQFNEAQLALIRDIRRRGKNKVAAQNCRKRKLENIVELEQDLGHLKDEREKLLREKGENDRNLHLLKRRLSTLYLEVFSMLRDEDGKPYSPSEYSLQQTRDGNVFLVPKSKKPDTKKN

[2] = target: T1, Nuclear factor erythroid 2-related factor 2 (Mus musculus); assay: Activation of NRF2 in mouse MLE12 cells assessed as increase in NRF2 level at 10 uM incubated for 6 hrs by immunoblot assay
[3] = target: T1, Nuclear factor erythroid 2-related factor 2 (Mus musculus); assay: Activation of NRF2 in mouse MLE12 cells assessed as induction of NQO1 expression at 10 uM incubated for 6 hrs by immunoblot assay

Row | Activity [1] | Activity [2] | Activity [3] | Structure (SMILES)
1 | Active | Active |  | CCOC(=O)CN(c1ccc(NS(=O)(=O)c2ccc(OC)cc2)c2ccccc12)S(=O)(=O)c1ccc(OC)cc1
2 | Active | Active |  | COc1ccc(S(=O)(=O)Nc2ccc(NS(=O)(=O)c3ccc(OC)cc3)c3ccccc23)cc1
3 | inactive |  | inactive | COc1ccc(S(=O)(=O)Nc2ccc(N(CC(=O)O)S(=O)(=O)c3ccc(OC)cc3)c3ccccc23)cc1
4 | Active | Active |  | COc1ccc(S(=O)(=O)N(CC(=O)O)c2ccc(N(CC(=O)O)S(=O)(=O)c3ccc(OC)cc3)c3ccccc23)cc1
